Data published in ChEMBL document CHEMBL1134153, “Novel bicyclic lactam inhibitors of thrombin: potency and selectivity optimization through P1 residues” (Bioorg Med Chem Lett, 2001).

Columns and labels:
Prothrombin = Prothrombin (Rattus norvegicus, UniProt P18292); test: In vitro ability to inhibit the amidolytic activity of thrombin
Rattus norvegicus [1] = test: Tested for in vivo activated partial thromboplastin time in rat arterial thrombosis model; format: functional
Rattus norvegicus [2] = test: Tested for in vivo thrombin time in rat arterial thrombosis model; format: functional
Rattus norvegicus [3] = test: Tested for in vivo mean occlusion time in rat arterial thrombosis model; format: functional

| Ki (Prothrombin) [nM] | Structure (SMILES) | APTT (Rattus norvegicus [1]) [min] | TT (Rattus norvegicus [2]) [min] | MOT (Rattus norvegicus [3]) [min] |
| --- | --- | --- | --- | --- |
| 180 | N=C(N)N1CCC(CNC(=O)[C@@H]2CC[C@H]3CN(C(=O)CCc4ccccc4)CC(=O)N32)CC1 | – | – | – |
| 0.6 | N=C(N)NCCC[C@H](NC(=O)[C@@H]1CC[C@H]2CN(C(=O)CCc3ccccc3)CC(=O)N21)C(=O)c1nccs1 | – | – | – |
| 900 | N=C(N)NCCCCNC(=O)C1CC[C@H]2CN(C(=O)CCc3ccccc3)CC(=O)N12 (some centres undefined) | – | – | – |
| 8 | N=C(N)c1ccc(CNC(=O)[C@@H]2CC[C@H]3CN(S(=O)(=O)Cc4ccccc4)CC(=O)N32)cc1 | 0.967 | 7.58 | >60 |
| 78 | N=C(N)N1CCC(CNC(=O)[C@@H]2CC[C@H]3CN(S(=O)(=O)Cc4ccccc4)CC(=O)N32)CC1 | – | – | – |
| – | N/C(=N\O)N1CCC(CNC(=O)[C@@H]2CC[C@H]3CN(S(=O)(=O)Cc4ccccc4)CC(=O)N32)CC1 | 0.633 | 3.85 | 48 |
| > 10000 | N/C(=N/O)c1ccc(CNC(=O)[C@@H]2CC[C@H]3CN(S(=O)(=O)Cc4ccccc4)CC(=O)N32)cc1 | – | – | – |
| 1000 | O=C(NCc1ccc2nc[nH]c2c1)[C@@H]1CC[C@H]2CN(S(=O)(=O)Cc3ccccc3)CC(=O)N21 | – | – | – |
| 100 | N[C@H]1CC[C@H](CNC(=O)C2CC[C@H]3CN(S(=O)(=O)Cc4ccccc4)CC(=O)N23)CC1 (some centres undefined) | – | – | – |
| 1100 | O=C(NC[C@H]1CC[C@H](NO)CC1)[C@@H]1CC[C@H]2CN(S(=O)(=O)Cc3ccccc3)CC(=O)N21 | – | – | – |

| Structure (SMILES) | Ki (Prothrombin) [nM] | APTT (Rattus norvegicus [1]) [min] | TT (Rattus norvegicus [2]) [min] | MOT (Rattus norvegicus [3]) [min] |
| --- | --- | --- | --- | --- |
| Cc1cc(C(=N)N)ccc1CNC(=O)[C@@H]1CC[C@H]2CN(S(=O)(=O)Cc3ccccc3)CC(=O)N21 | 7 | 0.9 | 6.55 | 46 |
